Where two headings read alike, the source gives them in different places.
Tested on: phosphorylated fos-GHRct (fos-GHRct/Jak2 signaling)
Experiment: Cell based primary screen: immune fluorescence (anti-GHR, anti-pY, anti-pJak2, anti-pSTAT5) of fos-GHRct-transfected γ2A iJak2 cells
Parameters: species or system human
Details: for phosphorylation of STAT5 (pSTAT5) / phosphorylation of fos-pGHRct (pY) / phosphorylation of the active site of Jak2 (p1007/1008): concentration curves, Fig S10
Description: Drug handling and cell-based assays are detailed in Supplementary Data 1 , automation. High-Content StratoMineR ([35]). After incubation with the compounds, the cells were fixed and the fluorescence (anti-GHR, anti-pY, anti-pJak2, anti-pSTAT5) was quantitated.
As it was unknown whether the GH/IGF1 axis is druggable, we designed a broad strategy based on our previous studies in which soluble fos-zipped GHR cytosolic tails (fos-GHRct) can serve as signaling complexes if co-expressed with Jak ([32], [39]). Fos-GHRct expressed without Jak2 is immediately degraded by the ubiquitin pathway. Phosphorylated fos-GHRct (fos-pGHRct) detaches from Jak2 and unzips. Only unzipped fos-pGHRct are protected from proteasomal degradation and accumulate in the cell. […] For 6 scenarios the signal will be decreased: (1) inhibition of Jak2 kinase activity, (2) inhibition of fos-GHRct expression, (3) inhibition of the fos-GHRct : Jak2 interaction, (4) increased degradation of fos-pGHRct, (5) increased degradation of Jak2, and (6) dephosphorylation of fos-pGHRct ([32], [39]).
Figure 1 Diagram of the primary screen. […] If fos-GHRct and Jak2 bind via FERM and box-1, Jak2 gets activated and phosphorylates itself, the dimerized fos-GHRct and STAT5b. After phosphorylation of fos-GHRct, Jak2 and STAT5, the complex dissociates. As fos-pGHRct is protease-resistant, it accumulates in the cells. Unphosphorylated fos-GHRct is rapidly degraded. Steady state levels of fos-pGHRct are lower if one of the 6 scenarios is valid. The cell-based assay was performed in γ2A cells carrying inducible Jak2 (iJak2) or binding-deficient iJak2 Y119E (as control) ( Figure 2 ). […]
1. Cell based primary screen
The assay was based on Fos-zippered GHR cytosolic tails (fos-GHRct) subsequently acting […]
Fig S1A. Immune Fluorescence staining of γ2a Fig S1B. Immune Fluorescence staining of γ2a monoclonal cell line stably transfected with an monoclonal cell line stably transfected with an inducible Jak2 WT expression construct. inducible Jak2 Y119E expression construct. aim we used a human fibroblast cell line
From this line we generated doxycycline inducible Jak2 clones, expressing either wild type Jak2 or Y119E mutant Jak2 whose FERM domain does […]
To establish a sensitive test, sufficient […]
control the system, we used fos-GHRct mutated in box-1 or the cell line expressing mutant (Y119E) Jak2. The box-1 motif is the binding site of Jak2 in GHR; mutation of this motif (all four proline into alanine) is known to reduce the binding between GHR and Jak2. In the primary screen we measured 4 different signals: fos-GHRct (anti-GHR), tyrosine phosphorylated fos-GHRct (anti-pY), tyrosine phosphorylated Jak2 (anti-pY or anti- […]
inhibition of either fos-GHRct stabilization or fos-GHRct synthesis, are considered positive.
Immunoblots are not appropriate for high throughput screening. Using fos-GHRct-transfected cells as in Fig. S3 and pY-specific primary antibodies, we developed a high throughput screening assay based on pY-fos-GHRct immune fluorescent detection in 384-well plates with automated microscopy. […]
panel). From left to right: Dapi staining to visualize nuclei, fos-GHRct staining: GHRtails are detected by […]

[1] = Homo sapiens, Figure 4, ranked according inhibitory effects on GHR signaling and/or cell proliferation, read-out: IC50
[2] = Homo sapiens, Table_2.xlsx, second analogue set, read-out: GHR INHIBITORS, BM#, IC50

| IC50 [2] [nM] | Compound | phosphorylation of STAT5 (pSTAT5) | phosphorylation of fos-pGHRct (pY) | phosphorylation of the active site of Jak2 (p1007/1008) | IC50 [1] [nM] | other results |
| --- | --- | --- | --- | --- | --- | --- |
| – | CCOc1cccc2nc(N)nc(N)c12 [BM012] | lowered | lowered | lowered | – | IC50 (Homo sapiens, Table_1.xlsx, first analogue set, read-out: GHR INHIBITORS, BM#, (IC50)): 900 nM |
| – | N#CC[C@H](C1CCCC1)n1cc(-c2ncnc3[nH]ccc23)cn1 [Ruxolitinib, reference compound] | – | – | – | – | pY signal at plateau of dose-response: close to zero |
| – | Cc1nc(N)nc(N)c1/C=C/C1(c2ccc(C(F)(F)F)cc2)CC1 [BM001] | – | – | – | 20 to 30 | EC50 (Homo sapiens, Table_2.xlsx, cell prints EC50, read-out: GHR INHIBITORS, BM#, EC50): 20 to 30 nM |
| 50 | COc1cc(CN(C)c2ccc3nc(N)nc(N)c3c2)cc(OC)c1OC [BM003] | – | – | – | – | – |
| – | Cc1nc(N)nc(N)c1C#CC1(c2ccc(Cl)cc2)CC1 [BM004] | lowered | lowered | lowered | 80 | IC50 (Homo sapiens, primary screen protocol, 20 h, read-out: IC50, dose-response on pY levels (fos-GHRct, pJak2, pSTAT5)): ~200 nM; IC50, dose-response on pY levels (fos-GHRct, pJak2, pSTAT5) (primary screen protocol, 20 h): comparable to that of Ruxolitinib |
| 50 | Cc1c(-c2cccc(C#N)c2)ccc2nc(N)nc(N)c12 [BM002] | – | – | – | – | – |
